Values of other authors in article PMC4340357 (Journal of Chemical Information and Modeling, 2015).

Molecular target: C. perfringens neuraminidase
Details: read-out: IC50 against C. perfringens neuraminidase

In the case of CC(C)=CCc1c(O)c(CC=C(C)C)c2oc3c(O)ccc(O)c3c(=O)c2c1O [Gartanin], the IC50 is listed as 2900 ± 300 nM.
